Experimental data as given in US11339144B2 (Navitor Pharmaceuticals, Inc., priority 2017, dated 2022).
Where two headings read alike, the source gives them in different places.

Key:
[1] = molecular target: HA-GST-Rheb (GTP-γ-S loaded) activating mTORC1 (Homo sapiens (Human), UniProt Q15382); experiment: Rheb-dependent in vitro kinase assay (Rheb-IVK; LanthaScreen or Western readout); type: biochemical
Rheb = Rheb (Homo sapiens (Human), UniProt Q15382); experiment: Affinity Selection Mass Spectrometry (ASMS); type: binding; details: affinity (R3/R0) in Affinity Selection Mass Spectrometry assay
Protocol: Method 2 (Affinity Selection Mass Spectrometry
Protein: Rheb (19 KDa) in the following buffer: 20 mM Tris, pH 8.0, 200 mM NaCl, 2 mM DTT, 5 mM MgCl2 was prepared as under.
Human Rheb protein (I-169) was purified from BL21 (DE3) E. coli using a His-Smt-Rheb expression vector. The cell paste was lysed in lysis buffer (50 mM HEPES pH 7.5, 0.5 M NaCl, 5% Glycerol, 1% CHAPS, EDTA free protease inhibitor tablets, lysozyme to 1 mg/mL, benzonase 250U), sonicated, and purified on a HiTrap Ni Chelating Column (GE Healthcare) using the following buffer: 50 mM HEPES pH 7.5, 0.5 M NaCl, 5% Glycerol, and imidazole increasing in concentration from 5 mM to 500 mM. The His-Smt tag was cleaved using a U1p1 enzyme and dialyzed into 50 mM HEPES pH 7.5, 0.5 M NaCl, 5% Glycerol. The resultant protein was again purified on a Ni Chelating column to remove the U1p1 enzyme and His-Smt tag and then purified by size exclusion chromatography on a Sephacryl S-100 26/60 column into the following final buffer: 20 mM NaPhos pH 7.0, 100 mM NaCl, 5 mM MgCl2, 2 mM TCEP.
Concentrations: 60 μM Rheb, 180 μM GDP and 2 μM of each compound,
Ultrafiltration Filter (Sartorius, Germany) MW cutoff: 10 KDa
• (a) Sample preparation: Prepare sample for each group in 1.5 mL microcentrifuge tube according to the experimental design, total volume 550 μL. In a standard ASMS experiment there are two groups: Protein plus (P+L+) and protein minus (P−L+). • (b) Transfer 50 μL from the 550 μL to a vial as R0 sample. Incubate the rest solution for 30 min at room temperature. Then transfer the 500 μL into an ultrafiltration filter tube and centrifuge at 12×10^3 rpm for ˜10 min, leave about 50 μL solution (otherwise adjust this time). • (c) Add incubation buffer to the ultrafiltration filter tube to about 500 μL. Stir gently and centrifuge mixtures as above, leave about 50 μL solution. • (d) Repeat the step c. Transfer the remaining 50 μL upper layer solution to a new vial as R^3 sample. Sample Extraction: Add 150 μL MeCN to denature the protein completely. Centrifuge at 12×10^3 rpm for 5 min. Transfer the supernatant into LC-MS auto sampler vials for LC-MS analysis (5 uL injection).
Waters Acquity UPLC system, Waters ACQUITY UPLC BEH C18 column (2.1×50 mm, 1.7 μM); Mobile phase A: 0.1% formic acid solution, B: MeCN; 0.3 mL/min, 5 μL injection, gradient elution (Table 5).
Waters Synapt G1 Q-TOF system, positive or negative ion scan modes; Capillary voltage: 3.0 kV; Method: MSE; Mass range: m/z=100-1000; Source temperature: 120° C.; Desolvation temperature: 400° C.; Collision voltage: 35 V; Sampling Cone: 35 V; Extraction Cone: 4.0 V; Cone Gas: 50 L/h; Desolvation Gas: 800 L/h.

[2] = Rheb-dependent in vitro kinase assay, read-out: IVK IC50

Chain of Rheb (Q15382 1-169 limits assumed): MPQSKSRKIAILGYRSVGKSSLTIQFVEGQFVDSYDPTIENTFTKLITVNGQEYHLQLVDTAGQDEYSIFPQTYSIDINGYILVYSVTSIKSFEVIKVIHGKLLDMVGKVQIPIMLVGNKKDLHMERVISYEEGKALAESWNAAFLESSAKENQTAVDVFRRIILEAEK
Chain of HA-GST-Rheb (GTP-γ-S loaded) activating mTORC1 (Q15382 1-181): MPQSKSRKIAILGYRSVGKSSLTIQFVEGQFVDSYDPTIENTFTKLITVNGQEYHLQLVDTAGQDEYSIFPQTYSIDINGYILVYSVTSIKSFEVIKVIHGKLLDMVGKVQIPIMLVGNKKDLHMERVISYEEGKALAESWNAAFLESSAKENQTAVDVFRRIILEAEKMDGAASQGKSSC

IC50 [1, 2] [µM]	IC50 ([1]; LanthaScreen variation, Terbium labeled T46p4E-BP1 specific antibody, read-out: IC50 in the Rheb-IVK) [µM]	inhibition of mTORC1 activity in the Rheb-IVK ([1]; Western blot variation, anti 4E-BP1 and anti T37/46p4E-BP1)	Molecule	ASMS (R3/R0) (Rheb)
< 10			Nc1ccc(-c2ccc(Cn3c(C(=O)O)cc4c(Sc5ccc(Cl)cc5Cl)cc(Cl)cc43)cc2)cc1 [I-78, 1-((4′-aminobiphenyl-4-yl)methyl)-6-chloro-4-(2,4-dichlorophenylthio)-1H-indole-2-carboxylic acid]	B (an affinity (R3/R0) between 100% and 20%)
< 10			CN(C)C(=O)c1ccc(Cn2c(C(=O)O)cc3c(C4CC4)cc(Sc4ccc(Cl)c(Cl)c4)cc32)cc1 [I-10, 4-cyclopropyl-6-(3,4-dichlorophenylthio)-1-(4-(dimethylcarbamoyl)benzyl)-1H-indole-2-carboxylic acid]	A (an affinity (R3/R0)>100%)
10 to 100			Clc1cc2nc(-c3ccncc3)[nH]c2cc1Cl [I-378, 5,6-dichloro-2-(pyridin-4-yl)-1H-benzo[d]imidazole]	B (an affinity (R3/R0) between 100% and 20%)
10 to 100			Clc1cccc(Sc2cccc3[nH]ccc23)c1 [I-243, 4-(3-chlorophenylthio)-1H-indole]	B (an affinity (R3/R0) between 100% and 20%)
10 to 100			Clc1cccc(Oc2cccc3[nH]ccc23)c1Cl [I-254, 4-(2,3-Dichlorophenoxy)-1H-indole]	B (an affinity (R3/R0) between 100% and 20%)
> 100			CN1CCC[C@@H]1CNC(=O)c1cc2c(Br)cc(Sc3ccc(Cl)c(Cl)c3)cc2[nH]1 [I-57]	A (an affinity (R3/R0)>100%)
10 to 100			Clc1cccc(Oc2cc(Cl)cc3[nH]ccc23)c1 [I-208, 6-chloro-4-(3-chlorophenoxy)-1H-indole]	B (an affinity (R3/R0) between 100% and 20%)
10 to 100			O=C(O)c1cc2c(Sc3cccc4cccnc34)cc(Cl)cc2[nH]1 [I-87, 6-chloro-4-(quinolin-8-ylthio)-1H-indole-2-carboxylic acid]	B (an affinity (R3/R0) between 100% and 20%)
10 to 100			CC(O)c1cc2c(Br)cc(Oc3ccccc3)cc2[nH]1 (stereo not shown) [I-218, 1-(4-bromo-6-phenoxy-1H-indol-2-yl)ethanol]	B (an affinity (R3/R0) between 100% and 20%)
< 10			4-bromo-6-(3,4-dichlorophenylthio)-1-(4-((2-hydroxyethyl)(methyl)carbamoyl)benzyl)-1H-indole-2-carboxylic acid [I-51]	B (an affinity (R3/R0) between 100% and 20%)

Further lines, the molecule ahead of its results:

Molecule	IC50 [1, 2] [µM]	IC50 ([1]; LanthaScreen variation, Terbium labeled T46p4E-BP1 specific antibody, read-out: IC50 in the Rheb-IVK) [µM]	inhibition of mTORC1 activity in the Rheb-IVK ([1]; Western blot variation, anti 4E-BP1 and anti T37/46p4E-BP1)	ASMS (R3/R0) (Rheb)
O=C(O)c1ccc(CCn2c(C(=O)O)cc3c(Br)cc(Oc4ccccc4)cc32)cc1 [I-36]	> 100			C (an affinity (R3/R0)<20%)
O=C(O)c1ccc(Cn2c(-c3ccncc3)nc3cc(Cl)c(Cl)cc32)cc1 [I-365, 4-((5,6-dichloro-2-(pyridin-4-yl)-1H-benzo[d]imidazol-1-yl)methyl)benzoic acid]	10 to 100			C (an affinity (R3/R0)<20%)
OCc1nc2c(OCC3CCC(O)CC3)c(Cl)c(Cl)cc2[nH]1 (stereo not shown) [I-399, 4-((5,6-dichloro-2-(hydroxymethyl)-1H-benzo[d]imidazol-4-yloxy)methyl)cyclohexanol]	10 to 100			C (an affinity (R3/R0)<20%)
OCc1cc(Sc2ccc(Cl)cc2)c2cc[nH]c2c1 [I-198, (4-(4-chlorophenylthio)-1H-indol-6-yl)methanol]	10 to 100			B (an affinity (R3/R0) between 100% and 20%)
4-((6-chloro-4-(3,4-dichlorophenoxy)-1H-indol-1-yl)methyl)benzoic acid [I-146]	< 10			B (an affinity (R3/R0) between 100% and 20%)
CN1CCC(NC(=O)c2ccc(Cn3c(C(=O)O)cc4c(Br)cc(Oc5ccccc5)cc43)cc2)C1 (stereo not shown) [I-53]	> 100			B (an affinity (R3/R0) between 100% and 20%)
Cc1cc(Sc2ccc(Cl)cc2)c2cc(C(=O)O)[nH]c2c1C [I-58, 4-(4-chlorophenylthio)-6,7-dimethyl-1H-indole-2-carboxylic acid]	10 to 100			B (an affinity (R3/R0) between 100% and 20%)
O=C(O)c1cc2c(Sc3ccc(Cl)cc3Cl)cc(Cl)cc2n1Cc1ccc(-c2cccc(CO)c2)cc1 [I-72, 6-chloro-4-(2,4-dichlorophenylthio)-1-((3′-(hydroxymethyl)biphenyl-4-yl)methyl)-1H-indole-2-carboxylic acid]	< 10			B (an affinity (R3/R0) between 100% and 20%)
Clc1ccc2[nH]c(-c3cnco3)cc2c1Oc1ccccc1 [I-256, 5-(5-chloro-4-phenoxy-1H-indol-2-yl)oxazole]	10 to 100			B (an affinity (R3/R0) between 100% and 20%)
O=C(O)Cn1c(C(=O)O)cc2c(Oc3cc(Cl)ccc3Cl)cc(Cl)cc21 [I-162, 1-(Carboxymethyl)-6-chloro-4-(2,5-dichlorophenoxy)-1H-indole-2-carboxylic acid]	100 to 300			B (an affinity (R3/R0) between 100% and 20%)
CN1CC(NC(=O)c2cc3c(-c4cc(Cl)cc(Cl)c4)cc(Cl)cc3[nH]2)C1 [I-26]	> 100			B (an affinity (R3/R0) between 100% and 20%)
O=C1CCc2ccc(Oc3cc(Cl)cc4[nH]c(C(=O)O)cc34)cc2N1 [I-108, 6-chloro-4-(2-oxo-1,2,3,4-tetrahydroquinolin-7-yloxy)-1H-indole-2-carboxylic acid]	100 to 300			B (an affinity (R3/R0) between 100% and 20%)
O=C(O)c1cc2c(Sc3cccc(OC(F)(F)F)c3)cc(Cl)cc2[nH]1 [I-126, 6-chloro-4-(3-(trifluoromethoxy)phenylthio)-1H-indole-2-carboxylic acid]	10 to 100			B (an affinity (R3/R0) between 100% and 20%)
COCc1cc2c(Br)cc(Sc3ccc(Cl)c(Cl)c3)cc2n1Cc1ccc(C(=O)N(C)C)cc1 [I-34]	> 100			B (an affinity (R3/R0) between 100% and 20%)
OCc1cc2c(Oc3ccccc3)c(Cl)ccc2[nH]1 [I-293, (5-chloro-4-phenoxy-1H-indol-2-yl)methanol]	100 to 300	~83.8	capable of inhibiting mTORC1 activity	C (an affinity (R3/R0)<20%)
Cn1c(CO)nc2cc(OCc3ccccc3)c(Cl)cc21 [I-425, (5-(benzyloxy)-6-chloro-1-methyl-1H-benzo[d]imidazol-2-yl)methanol]	> 3			C (an affinity (R3/R0)<20%)
Brc1cc(Oc2ccccc2)cc2[nH]ccc12 [I-239, 4-bromo-6-phenoxy-1H-indole]	10 to 100			B (an affinity (R3/R0) between 100% and 20%)
OCc1cc2c(Oc3ccccc3)cc(Cl)cc2[nH]1 [I-291, (6-Chloro-4-phenoxy-1H-indol-2-yl)methanol]	10 to 100			C (an affinity (R3/R0)<20%)
COc1ccc(COc2cc3nc(CO)[nH]c3c(Cl)c2Cl)cc1 [I-328]	> 100			B (an affinity (R3/R0) between 100% and 20%)
O=C(O)c1cc2c(Sc3ccc(OC(F)(F)F)cc3)cc(Cl)cc2[nH]1 [I-129, 6-chloro-4-(4-(trifluoromethoxy)phenylthio)-1H-indole-2-carboxylic acid]	10 to 100			B (an affinity (R3/R0) between 100% and 20%)
CC(C)(C)OC(=O)c1ccc(Cn2c(C(=O)O)cc3c(Cl)cc(Sc4ccc(Cl)c(Cl)c4)cc32)cc1 [I-95, 1-(4-(tert-butoxycarbonyl)benzyl)-4-chloro-6-(3,4-dichlorophenylthio)-1H-indole-2-carboxylic acid]	10 to 100			B (an affinity (R3/R0) between 100% and 20%)
